The test system of the assay is MV-4-11 cells. Nature of the assay: Gene expression microarray analysis (Affymetrix PrimeView) and GSEA. It is filed as cell-based, human. The arrangement: RFU PODN (11730768_x_at) / Fold change /veh PODN (11730768_x_at) / RFU LINC00158 (11744669_a_at) / Fold change /veh LINC00158 (11744669_a_at) / RFU DUSP10 (11751237_a_at) / Fold change /veh DUSP10 (11751237_a_at) / RFU ID3 (11757404_x_at) / Fold change /veh ID3 (11757404_x_at) / RFU PLEKHG5 (11737974_s_at) / Fold change /veh PLEKHG5 (11737974_s_at) / RFU LRRC4B (11730491_at) / Fold change /veh LRRC4B (11730491_at) / RFU GIMAP4 (11747438_a_at) / Fold change /veh GIMAP4 (11747438_a_at) / RFU KRT8 (11758183_x_at) / Fold change /veh KRT8 (11758183_x_at) / RFU CNN1 (11734310_a_at) / Fold change /veh CNN1 (11734310_a_at) / RFU VPS37D (11726825_at) / Fold change /veh VPS37D (11726825_at) / RFU C10orf10 (11716522_x_at) / Fold change /veh C10orf10 (11716522_x_at) / RFU KIR2DL2 /// KIR2DL4 /// KIR2DL5A /// KIR2DL5B /// KIR2DS1 /// KIR2DS2 /// KIR2DS3 /// KIR2DS4 /// KIR3DL3 /// KIR3DL3 /// KIR3DS1 (11738374_at) / Fold change /veh KIR2DL2 /// KIR2DL4 /// KIR2DL5A /// KIR2DL5B /// KIR2DS1 /// KIR2DS2 /// KIR2DS3 /// KIR2DS4 /// KIR3DL3 /// KIR3DL3 /// KIR3DS1 (11738374_at) / RFU C1QL1 (11718748_at) / Fold change /veh C1QL1 (11718748_at) / RFU TMPRSS4 (11747572_a_at) / Fold change /veh TMPRSS4 (11747572_a_at) / RFU HAMP (11756126_x_at) / Fold change /veh HAMP (11756126_x_at) / RFU RNFT2 (11725882_a_at) / Fold change /veh RNFT2 (11725882_a_at) / RFU NR4A2 (11747474_a_at) / Fold change /veh NR4A2 (11747474_a_at) / RFU ABCC12 (11746883_a_at) / Fold change /veh ABCC12 (11746883_a_at) / RFU TMEM136 (11760407_x_at) / Fold change /veh TMEM136 (11760407_x_at) / RFU CLDN22 /// WWC2 (11732394_at) / Fold change /veh CLDN22 /// WWC2 (11732394_at) / RFU HLA-DPB1 (11760878_x_at) / Fold change /veh HLA-DPB1 (11760878_x_at) / RFU SPINT1 (11716480_a_at) / Fold change /veh SPINT1 (11716480_a_at) / RFU GAP43 (11754022_s_at) / Fold change /veh GAP43 (11754022_s_at) / RFU A4GNT (11735810_at) / Fold change /veh A4GNT (11735810_at) / RFU PRB3 (11715151_x_at) / Fold change /veh PRB3 (11715151_x_at) / RFU TUBB4B (11761932_at) / Fold change /veh TUBB4B (11761932_at) / RFU CAPN14 (11732068_a_at) / Fold change /veh CAPN14 (11732068_a_at) / RFU TMCC2 (11721928_a_at) / Fold change /veh TMCC2 (11721928_a_at) / RFU IRGQ (11745062_a_at) / Fold change /veh IRGQ (11745062_a_at) / RFU FAM174B (11720279_a_at) / Fold change /veh FAM174B (11720279_a_at) / RFU TMPRSS4 (11748680_a_at) / Fold change /veh TMPRSS4 (11748680_a_at) / RFU FAM212B (11763350_a_at) / Fold change /veh FAM212B (11763350_a_at) / RFU PLEKHG5 (11743358_a_at) / Fold change /veh PLEKHG5 (11743358_a_at) / RFU ZSCAN30 (11745921_a_at) / Fold change /veh ZSCAN30 (11745921_a_at) / RFU CMKLR1 (11741424_a_at) / Fold change /veh CMKLR1 (11741424_a_at) / RFU LOC101060620 /// MAPK8IP1 (11723275_at) / Fold change /veh LOC101060620 /// MAPK8IP1 (11723275_at) / RFU SPTSSB (11747773_x_at) / Fold change /veh SPTSSB (11747773_x_at) / RFU PRSS12 (11739890_at) / Fold change /veh PRSS12 (11739890_at) / RFU BIN1 (11741810_x_at) / Fold change /veh BIN1 (11741810_x_at) / RFU WNT11 (11732464_a_at) / Fold change /veh WNT11 (11732464_a_at) / RFU C10orf10 (11716521_a_at) / Fold change /veh C10orf10 (11716521_a_at) / RFU C5orf56 (11738089_at) / Fold change /veh C5orf56 (11738089_at) / RFU CYB561 (11721691_x_at) / Fold change /veh CYB561 (11721691_x_at) / RFU ANKRD19P (11752326_a_at) / Fold change /veh ANKRD19P (11752326_a_at) / RFU OR2T12 /// OR2T33 /// OR2T8 (11738714_s_at) / Fold change /veh OR2T12 /// OR2T33 /// OR2T8 (11738714_s_at) / RFU VCAN (11748164_a_at) / Fold change /veh VCAN (11748164_a_at) / RFU JSRP1 (11732532_at) / Fold change /veh JSRP1 (11732532_at) / RFU KRTAP10-11 (11738290_x_at) / Fold change /veh KRTAP10-11 (11738290_x_at) / RFU MYO3A (11730013_a_at) / Fold change /veh MYO3A (11730013_a_at) / RFU EBF3 (11725865_a_at) / Fold change /veh EBF3 (11725865_a_at) / RFU CAMK2N1 (11719241_x_at) / Fold change /veh CAMK2N1 (11719241_x_at) / RFU C5orf56 (11738088_a_at) / Fold change /veh C5orf56 (11738088_a_at) / RFU OLFML3 (11715873_a_at) / Fold change /veh OLFML3 (11715873_a_at) / RFU LOC100653217 /// NTM (11731650_a_at) / Fold change /veh LOC100653217 /// NTM (11731650_a_at) / RFU MAPK11 (11762145_a_at) / Fold change /veh MAPK11 (11762145_a_at) / RFU FIZ1 (11724087_x_at) / Fold change /veh FIZ1 (11724087_x_at) / RFU OASL (11726364_x_at) / Fold change /veh OASL (11726364_x_at) / RFU SOX15 (11748057_x_at) / Fold change /veh SOX15 (11748057_x_at) / RFU CD79A (11719716_a_at) / Fold change /veh CD79A (11719716_a_at) / RFU HIST1H1D (11736915_at) / Fold change /veh HIST1H1D (11736915_at) / RFU CASKIN2 (11723855_a_at) / Fold change /veh CASKIN2 (11723855_a_at) / RFU LOC730098 (11760151_x_at) / Fold change /veh LOC730098 (11760151_x_at) / RFU OR4N2 (11742367_at) / Fold change /veh OR4N2 (11742367_at) / RFU PRRT2 (11749266_a_at) / Fold change /veh PRRT2 (11749266_a_at) / RFU SNX32 (11753110_a_at) / Fold change /veh SNX32 (11753110_a_at) / RFU CDHR5 (11726645_a_at) / Fold change /veh CDHR5 (11726645_a_at) / RFU RCAN1 (11760418_a_at) / Fold change /veh RCAN1 (11760418_a_at) / RFU FAM167A (11723789_a_at) / Fold change /veh FAM167A (11723789_a_at) / RFU FAM26E (11764081_at) / Fold change /veh FAM26E (11764081_at) / RFU ISYNA1 (11749810_s_at) / Fold change /veh ISYNA1 (11749810_s_at) / RFU ACY1 (11761880_at) / Fold change /veh ACY1 (11761880_at) / RFU 11764098_at / Fold change /veh 11764098_at / RFU SAMD14 (11745864_x_at) / Fold change /veh SAMD14 (11745864_x_at) / RFU NPB (11741838_a_at) / Fold change /veh NPB (11741838_a_at) / RFU TMPRSS6 (11731388_a_at) / Fold change /veh TMPRSS6 (11731388_a_at) / RFU KRTAP10-2 (11738614_at) / Fold change /veh KRTAP10-2 (11738614_at) / RFU ARHGAP8 /// PRR5-ARHGAP8 (11727945_x_at) / Fold change /veh ARHGAP8 /// PRR5-ARHGAP8 (11727945_x_at) / RFU KRTAP5-7 /// NADSYN1 (11734609_at) / Fold change /veh KRTAP5-7 /// NADSYN1 (11734609_at) / RFU RASL12 (11751679_a_at) / Fold change /veh RASL12 (11751679_a_at) / RFU CDKN2B (11736163_a_at) / Fold change /veh CDKN2B (11736163_a_at) / RFU PRF1 (11729649_at) / Fold change /veh PRF1 (11729649_at) / RFU, ZNF638 /// ZNF638-IT1 / Fold change vs veh, ZNF638 /// ZNF638-IT1 / RFU, PANK3 / Fold change vs veh, PANK3 / RFU, SH3YL1 / Fold change vs veh, SH3YL1 / RFU, ZEB2 / Fold change vs veh, ZEB2 / RFU, NRIP1 / Fold change vs veh, NRIP1 / RFU, PTTG1IP / Fold change vs veh, PTTG1IP / RFU, CAPN2 / Fold change vs veh, CAPN2 / RFU, MED14 / Fold change vs veh, MED14 / RFU, SNORA58 / Fold change vs veh, SNORA58 / RFU, C1orf63 / Fold change vs veh, C1orf63 / RFU, LRRFIP1 / Fold change vs veh, LRRFIP1 / RFU, NDUFAF7 / Fold change vs veh, NDUFAF7 / RFU, SLC12A2 / Fold change vs veh, SLC12A2 / RFU, IBTK / Fold change vs veh, IBTK / RFU, ESF1 / Fold change vs veh, ESF1 / Fold change vs veh, TMEM50B / RFU, TAOK1 / Fold change vs veh, TAOK1 / RFU, ACBD3 / Fold change vs veh, ACBD3 / RFU, TMA16 / Fold change vs veh, TMA16 / RFU, RWDD3 / Fold change vs veh, RWDD3 / RFU, BCAT1 / Fold change vs veh, BCAT1 / RFU, EDEM3 / Fold change vs veh, EDEM3 / RFU, TMEM33 / Fold change vs veh, TMEM33 / RFU, WDR75 / Fold change vs veh, WDR75 / RFU, AHCTF1 / Fold change vs veh, AHCTF1 / RFU, TFRC / Fold change vs veh, TFRC / RFU, ZDHHC17 / Fold change vs veh, ZDHHC17 / RFU, NOM1 / Fold change vs veh, NOM1 / RFU, ARL8B / Fold change vs veh, ARL8B / RFU, ZBTB11 / Fold change vs veh, ZBTB11 / RFU, TAMM41 / Fold change vs veh, TAMM41 / RFU, KIAA1704 /// LOC100996395 / Fold change vs veh, KIAA1704 /// LOC100996395 / RFU, ING1 / Fold change vs veh, ING1 / RFU, TRMT61B / Fold change vs veh, TRMT61B / RFU, FUBP3 / Fold change vs veh, FUBP3 / RFU, TP53 / Fold change vs veh, TP53 / RFU, TNKS2 / Fold change vs veh, TNKS2 / RFU, ZFP14 / Fold change vs veh, ZFP14 / RFU, ACTR2 / Fold change vs veh, ACTR2 / RFU, PPP3R1 / Fold change vs veh, PPP3R1 / RFU, PIK3R1 / Fold change vs veh, PIK3R1 / RFU, HNRNPA1 / Fold change vs veh, HNRNPA1 / RFU, RNF170 / Fold change vs veh, RNF170 / RFU, ZNF28 / Fold change vs veh, ZNF28 / RFU, RNGTT / Fold change vs veh, RNGTT / RFU, OGT / Fold change vs veh, OGT / RFU, BRD1 / Fold change vs veh, BRD1 / RFU, MARS / Fold change vs veh, MARS / RFU, ZNF655 / Fold change vs veh, ZNF655 / RFU, FAHD1 / Fold change vs veh, FAHD1 / RFU, BDP1 / Fold change vs veh, BDP1 / RFU, LRRCC1 / Fold change vs veh, LRRCC1 / RFU, ARID1A / Fold change vs veh, ARID1A / RFU, ZNF146 / Fold change vs veh, ZNF146 / RFU, ZNF330 / Fold change vs veh, ZNF330 / RFU, GPN3 / Fold change vs veh, GPN3 / RFU, C9orf123 / Fold change vs veh, C9orf123 / RFU, N4BP2L2 / Fold change vs veh, N4BP2L2 / RFU, ARFIP1 / Fold change vs veh, ARFIP1 / RFU, FAM179B / Fold change vs veh, FAM179B / RFU, BCL10 / Fold change vs veh, BCL10 / RFU, UHRF1BP1L / Fold change vs veh, UHRF1BP1L / RFU, BET1 / Fold change vs veh, BET1 / RFU, CNOT2 / Fold change vs veh, CNOT2 / RFU, ZNF268 / Fold change vs veh, ZNF268 / Fold change vs veh, ZNF507 / RFU, DGCR2 / Fold change vs veh, DGCR2 / RFU, WDSUB1 / Fold change vs veh, WDSUB1 / Fold change vs veh, HSP90B1 /// MIR3652 / RFU, ADSS / Fold change vs veh, ADSS / RFU, GK / Fold change vs veh, GK / RFU, ZNF148 / Fold change vs veh, ZNF148 / RFU, TAF9 / Fold change vs veh, TAF9 / RFU, SLC1A5 / Fold change vs veh, SLC1A5 / RFU, SLMO2 / Fold change vs veh, SLMO2 / RFU, ABCC4 / Fold change vs veh, ABCC4 / RFU, LOC101060439 /// RAP1B / Fold change vs veh, LOC101060439 /// RAP1B / RFU, RFX7 / Fold change vs veh, RFX7 / RFU, GTPBP10 / Fold change vs veh, GTPBP10 / RFU, CNEP1R1 / Fold change vs veh, CNEP1R1 / RFU, BIVM-ERCC5 /// ERCC5 / Fold change vs veh, BIVM-ERCC5 /// ERCC5 / RFU, ILF3 / Fold change vs veh, ILF3 / RFU 11762660_at / Fold change /veh 11762660_at / RFU VCAN (11757783_s_at) / Fold change /veh VCAN (11757783_s_at) / RFU DDX43 (11728927_at) / Fold change /veh DDX43 (11728927_at) / RFU KRT8 (11758188_x_at) / Fold change /veh KRT8 (11758188_x_at) / RFU NKD1 (11759106_at) / Fold change /veh NKD1 (11759106_at) / RFU SRD5A1 (11742802_a_at) / Fold change /veh SRD5A1 (11742802_a_at) / RFU TPSAB1 /// TPSB2 (11721975_s_at) / Fold change /veh TPSAB1 /// TPSB2 (11721975_s_at) / RFU GSTM3 (11746129_a_at) / Fold change /veh GSTM3 (11746129_a_at) / RFU IL23R (11737362_x_at) / Fold change /veh IL23R (11737362_x_at) / RFU TMEM51 (11727254_a_at) / Fold change /veh TMEM51 (11727254_a_at) / RFU PIWIL2 (11732686_x_at) / Fold change /veh PIWIL2 (11732686_x_at) / RFU ORM1 (11744905_x_at) / Fold change /veh ORM1 (11744905_x_at) / RFU CCDC152 (11743942_at) / Fold change /veh CCDC152 (11743942_at) / RFU ECM1 (11717891_a_at) / Fold change /veh ECM1 (11717891_a_at) / RFU IL23R (11748794_a_at) / Fold change /veh IL23R (11748794_a_at) / RFU TNFAIP8L3 (11732012_x_at) / Fold change /veh TNFAIP8L3 (11732012_x_at) / RFU MBOAT4 (11741988_at) / Fold change /veh MBOAT4 (11741988_at) / RFU 11764193_at / Fold change /veh 11764193_at / RFU TMEM53 (11763286_at) / Fold change /veh TMEM53 (11763286_at) / RFU MAGEB2 (11727129_at) / Fold change /veh MAGEB2 (11727129_at) / RFU TMEM200A (11744735_a_at) / Fold change /veh TMEM200A (11744735_a_at) / RFU CCDC152 (11751479_a_at) / Fold change /veh CCDC152 (11751479_a_at) / RFU FAM211A (11726209_a_at) / Fold change /veh FAM211A (11726209_a_at) / RFU RGS16 (11746705_a_at) / Fold change /veh RGS16 (11746705_a_at) / RFU VCAN (11755009_s_at) / Fold change /veh VCAN (11755009_s_at) / RFU RHOB (11743442_s_at) / Fold change /veh RHOB (11743442_s_at) / RFU RGS16 (11720943_a_at) / Fold change /veh RGS16 (11720943_a_at) / RFU RGS16 (11720944_at) / Fold change /veh RGS16 (11720944_at) / RFU, VPS4B / Fold change vs veh, VPS4B / RFU, CREB1 / Fold change vs veh, CREB1 / RFU, DNAJC13 / Fold change vs veh, DNAJC13 / RFU, GNAQ / Fold change vs veh, GNAQ / RFU, CDK5R1 / Fold change vs veh, CDK5R1 / RFU, ZRANB3 / Fold change vs veh, ZRANB3 / RFU, CUL4A / Fold change vs veh, CUL4A / RFU, CCNY / Fold change vs veh, CCNY / RFU, UFL1 / Fold change vs veh, UFL1 / RFU, COG3 / Fold change vs veh, COG3 / RFU, DIAPH2 / Fold change vs veh, DIAPH2 / RFU, SKA2 / Fold change vs veh, SKA2 / RFU, AFF3 / Fold change vs veh, AFF3 / RFU, LMF1 / Fold change vs veh, LMF1 / RFU, IPO11 / Fold change vs veh, IPO11 / RFU, DFFB / Fold change vs veh, DFFB / RFU, FOXP1 / Fold change vs veh, FOXP1 / RFU, CARD8 / Fold change vs veh, CARD8 / RFU, STRN3 / Fold change vs veh, STRN3 / RFU, ADK / Fold change vs veh, ADK / RFU, RASSF2 / Fold change vs veh, RASSF2 / RFU, WIPF1 / Fold change vs veh, WIPF1 / RFU, LARP1B / Fold change vs veh, LARP1B / RFU, RASA1 / Fold change vs veh, RASA1 / RFU, RB1 / Fold change vs veh, RB1 / RFU, PPFIA1 / Fold change vs veh, PPFIA1 / RFU, MAT2A / Fold change vs veh, MAT2A / RFU, CCT5 / Fold change vs veh, CCT5 / RFU, WDR92 / Fold change vs veh, WDR92 / RFU, CUX1 / Fold change vs veh, CUX1 / RFU, TTC7A / Fold change vs veh, TTC7A / RFU, TMEM135 / Fold change vs veh, TMEM135 / RFU, DEPTOR / Fold change vs veh, DEPTOR / RFU, CPM / Fold change vs veh, CPM / RFU, DNAJB6 / Fold change vs veh, DNAJB6 / RFU, CACNA2D3 / Fold change vs veh, CACNA2D3 / RFU, DTX4 / Fold change vs veh, DTX4 / RFU, TFCP2 / Fold change vs veh, TFCP2 / RFU, GMCL1 /// GMCL1P1 / Fold change vs veh, GMCL1 /// GMCL1P1 / RFU, AEBP2 / Fold change vs veh, AEBP2 / RFU, SNHG1 /// SNORD22 /// SNORD25 /// SNORD26 /// SNORD27 /// SNORD28 /// SNORD29 /// SNORD31 / Fold change vs veh, SNHG1 /// SNORD22 /// SNORD25 /// SNORD26 /// SNORD27 /// SNORD28 /// SNORD29 /// SNORD31 / Fold change (Aza/veh), C12orf56 (ProbeSet 11735607_a_at) / Fold change (ACY-1035/veh), C12orf56 (ProbeSet 11735607_a_at) / Fold change (Aza/veh), FGFR1OP (ProbeSet 11751329_s_at) / Fold change (ACY-1035/veh), FGFR1OP (ProbeSet 11751329_s_at) / Fold change (Aza/veh), VPS36 (ProbeSet 11739960_a_at) / Fold change (ACY-1035/veh), VPS36 (ProbeSet 11739960_a_at) / RFU SYPL1 (11715823_x_at) / Fold change /veh SYPL1 (11715823_x_at) / RFU IGFBP7 (11715501_s_at) / Fold change /veh IGFBP7 (11715501_s_at) / RFU REEP3 (11722064_at) / Fold change /veh REEP3 (11722064_at) / RFU IGLL1 (11728026_x_at) / Fold change /veh IGLL1 (11728026_x_at): dose or concentration left out as unconfirmed. The conditions noted are these: MV-4-11 cells, 48 hours.

Consider `Nc1ncn([C@@H]2O[C@H](CO)[C@@H](O)[C@H]2O)c(=O)n1` [azacitidine], for which the “Fold change /veh SRD5A1 (11742802_a_at)” value is listed as 1.21.

(Values after article PMC5218480 (PLoS ONE, 2017).)
